Test [1] deals with SH2 and PTB domains. Description: Sum of relative binding free energies (ΔΔG) from FP KDs, relative to 20 µM threshold. Also noted: species or system human; unit not given here. The procedure: In order to further define and classify commonalities and differences among the ErbB family, the relative binding free energy (FE) of each SH2 domain was summed across all phosphosites on each receptor relative to the assay detection threshold of 20 µM according to Equation (3): [drawing 10] (3)

The target of test [2] is SH2 and PTB domains. Conditions: cited from earlier work. An excerpt:
Supplement pone.0044471.s022.xlsx, sheet "Most recent PM interactions" | column: Kd || Supplement pone.0044471.s022.xlsx, sheet "All original PM interactions" | column: Kd

Read-outs that look alike come from different tables or passages of the source. Non-standard residues stand in square brackets, D forms with d. No end group written: not given here. pY = N[C@@H](Cc1ccc(OP(=O)(O)O)cc1)C(=O)O

Drawing on PMC3433420 (PLoS ONE, 2012), this text covers GO_SumDDG and Kd for five substances.

Turning to ERBB3 (SEQG[pY]EEMRAFQD), the GO_SumDDG with SH2 and PTB domains [1] (GO group Adaptors) stood at 1.375; in the test with SH2 and PTB domains [1] (GO group Chromatin Remodeling), 0; in the test on SH2 and PTB domains [1] (GO group Cytoskeletal Regulation) it was 3.549; with SH2 and PTB domains [1] (GO group Kinases) it was 3.776; with SH2 and PTB domains [1] (GO group Phosphatases), 2.349; with SH2 and PTB domains [1] (GO group Phosphatidyl Inositol Kinases) it was 12.5484. Further, the GO_SumDDG in the test on SH2 and PTB domains [1] (GO group Phosphatidyl Inositol Phosphatases) worked out at 1.508; in the test with SH2 and PTB domains [1] (GO group Phospholipases), 8.299; in the test on SH2 and PTB domains [1] (GO group RAS GEFs), 3.469; with SH2 and PTB domains [1] (GO group RAS GTPases) it was 10.8637; in the test with SH2 and PTB domains [1] (GO group RHO GEFs), 4.394; in the test on SH2 and PTB domains [1] (GO group Scaffolds), 3.618. In the test with SH2 and PTB domains [1] (GO group Signal Regulation), the GO_SumDDG is recorded as 2.5932.

In the case of “RDPHpYQDPHSTAd [ErbB1 pY1125, N-terminally rhodamine-labeled 13-mer phosphopeptide]”, the Kd is 130 nM at SH2 and PTB domains [2] (protein ABL2, ref Jones et al. 2006 / Kaushansky et al. Mol Biosys 2008 / Kaushansky et al. Chem and Biol 2008); 1070 nM at SH2 and PTB domains [2] (protein BMX, ref Jones et al. 2006 / Kaushansky et al. Mol Biosys 2008 / Kaushansky et al. Chem and Biol 2008); 1230 nM on SH2 and PTB domains [2] (protein CRK, ref Jones et al. 2006 / Kaushansky et al. Mol Biosys 2008 / Kaushansky et al. Chem and Biol 2008); 2000 nM on SH2 and PTB domains [2] (protein CRKL, ref Jones et al. 2006 / Kaushansky et al. Mol Biosys 2008 / Kaushansky et al. Chem and Biol 2008); 1320 nM at SH2 and PTB domains [2] (protein RASA1-N, ref Jones et al. 2006 / Kaushansky et al. Mol Biosys 2008 / Kaushansky et al. Chem and Biol 2008); 990 nM at SH2 and PTB domains [2] (protein SHB, ref Jones et al. 2006 / Kaushansky et al. Mol Biosys 2008 / Kaushansky et al. Chem and Biol 2008). For the same substance, the Kd at SH2 and PTB domains [2] (protein SYK-NC, ref Jones et al. 2006 / Kaushansky et al. Mol Biosys 2008 / Kaushansky et al. Chem and Biol 2008) was 980 nM; on SH2 and PTB domains [2] (protein TNS1, ref Jones et al. 2006 / Kaushansky et al. Mol Biosys 2008 / Kaushansky et al. Chem and Biol 2008), 1280 nM; at SH2 and PTB domains [2] (protein YES1, ref Jones et al. 2006 / Kaushansky et al. Mol Biosys 2008 / Kaushansky et al. Chem and Biol 2008), 380 nM.

Turning to “STQRpYSADPTVFd [ErbB4 pY1128, N-terminally rhodamine-labeled 13-mer phosphopeptide]”, on SH2 and PTB domains [2] (protein SRC, ref Kaushansky et al. Chem and Biol 2008), the Kd is 500 nM.

On to THDPSPLQRpYSEDPTVPd [ErbB2 1112], for which the Kd on SH2 and PTB domains [2] (Protein BLK, most recent PM interactions, ref Kaushansky et al. Chem and Biol 2008) is 760 nM; on SH2 and PTB domains [2] (Protein PLCG2-NC, most recent PM interactions, ref Kaushansky et al. Chem and Biol 2008) it was 1060 nM.

Consider “VSVPpYRAPTSTI [ErbB4 pY1081, N-terminally rhodamine-labeled 13-mer phosphopeptide]”, for which the dissociation constant Kd was 1230 nM on SH2 and PTB domains [2] (protein ABL2, ref Kaushansky et al. Chem and Biol 2008); 1240 nM on SH2 and PTB domains [2] (protein CRKL, ref Kaushansky et al. Chem and Biol 2008).
